Reference: patent publication EP1785722A1, “Microbial, viral and mammalian susceptibility to agents that affect cell growth and metabolism, and compatibility of compounds” (Stratos Bio Ltd., priority 2005, dated 2007)

Columns and labels:
E. coli = experiment: MIC / MBC against E. coli; format: cell-based
[1] = system: Bordetella Bronchiseptica; experiment: MIC / MBC against Bordetella bronchiseptica; format: cell-based
Micrococcus flavus [2] = experiment: MIC / MBC against Micrococcus flavus; format: cell-based; details: as printed in table heads
respiring E.coli = experiment: Microcalorimetry of respiring E. coli in glucose buffer; format: cell-based
Procedure: E.coli was suspended in 10% DMSO prior to freezing and the viable counts were for batch 1: pre-freeze: 4.0 ± 0.6_ x 10^10 cfu/ml and post -freeze 2.0 ± 0.44 x 10^10 cfu/ml and for batch 2: pre-freeze: 3.45 ± 0.58 x 10^10 cfu/ml and post-freeze 2.93 ± 0.43 x 10^10 cfu/ml. The freezing rate for both batches was 20°C/min the survival rate was 50% for batch 1 and 85% for batch 2. These differences may have been due to batch 1 being kept for 24h at 4°C before being frozen.
The respiration experiments were carried out in glucose buffer at different pH. The respiration curves obtained from batch 1 (inoculum 2 x 10^10 cfu/ml) and batch 2 Inoculum 3.2 x 10^10 cfu/ml) were essentially similar and a mean was used as a reference). The respiration experiments were carried out at pH 7 for polymyxin and Znbacitracin and at pH 8 for neomycin. No differences in p-t control curves could be observed at pH 7 or pH 8.
The p-t curves rose and reached a plateau as has been observed for respiration of yeasts and some 20 min later fell to a lower plateau value. Prior incubation of the cells in the buffered glucose for periods up to 20 min before presentation to the calorimeter could reduce or entirely remove this effect.

Bacillus pumilus = experiment: Flow microcalorimetry (p-t curves) of growing Bacillus pumilus; format: cell-based
Excerpt: (§1) • a) For B. pumilus a simple glucose/salts medium was employed with a glucose concentration of 0.1 % w/v. • b) For Bord. bronch. The above salts medium was used with the addition of nicotinic acid, methionine and glutamic acid. Glutamic acid was used at a concentration of 0.2% w/v. • c) For M. flavus a semidefined medium was employed, using the same salts as a B. pumilus but also Na-citrate, biotin and protease peptone. In the calorimeter a concentration of 0.4% protease peptone was used. All medium constituents (except protease) were analytical reagents. The calorimetric medium was therefore a final concentration of 100ml of either solution a, b or c freshly autoclaved for 15 mins exactly at 121°C, 151b/sq inch. Glucose was added to the appropriate solution after autoclaving.
(§2) To the vertical face of the vessel close to its base, equidistantly spaced around the circumference, ports were fitted for an oxygen electrode and for sampling/inoculation. The fermenter was closed with a flat flanged glass lid which had five ports accommodating respectively, gas inlet tube, gas exhaust (via air condenser), inlet and outlet flow-lines to and from the calorimeter. The fermenter and lid was sealed with a p.t.f.e. gasket and clamped with a metal clip. The fermenter was placed on a magnetic stirring unit in a water jacket which allowed circulation of the thermostatically controlled water at 30°C or 37°C. The fermenter which contained a Teflon coated magnetic stirring bar, was sterilised by autoclaving.
(§3) For a typical calorimetric incubation the medium was passed through the calorimetric vessel at the same flow rate and temperature as those used in the experiment to establish a steady baseline deflection. The following operations then took place to a strict timetable. The liquid nitrogen stored ampoule was thawed at 38°C for 3 min and then stirred for 20 sec on a whirlimixer. The bacterial suspension (0.5-1.5ml) volumes was inoculated into the medium (100ml) two minutes after completion of thawing. A Gilson automatic pipette was used for inoculation. The calorimeter inlet flow-line was placed in the incubation medium 30 seconds after inoculation. The flowing incubation medium reached the calorimetric vessel two min after inlet flow-line insertion. At this time the recording of the p-t curves was started. Eight min after inoculation the outflow from the calorimeter was returned to the fermenter (after the "baseline" medium had run to waste but before the inoculated medium ran to waste) thus making a closed system. Aeration was started as soon as the inlet tube was inserted in the fermenter. Microbiological purity of the culture was checked by plating out a sample of the culture at the end of each incubation on nutrient agar (lab M).
(§4) The output of calorimetric experiments is a plot of power (energy evolution per unit of time) as a function of time. The unit of power (p) is the Watt (W) and the unit of time is the hour (h). In some experiments seconds (s) were used as time unit.
(§5) However when the concentration of organisms was 5.1 x 10^6 cfu/ml which was the inoculum used in the microcalorimetric incubations the MIC was increased to 2 µg/ml; the effect was also bacteriostatic.

B. pumilus = experiment: MIC determination against B. pumilus; format: cell-based, Bacillus pumilus
Procedure: as §5

[3] = system: Bordetella Bronchiseptica; experiment: Flow microcalorimetry (p-t curves) of growing Bordetella bronchiseptica; format: cell-based
Excerpt: as §1, §2, §3, §4
After successful freezing of Bord. bronch p-t curves for growth in different concentrations of glutamic acid from 0.1%-0.5% were obtained. It was concluded that a medium containing 0.2% glutamic acid would be sufficient for a good deflection in the microcalorimeter minimising the possibility of the bacteria clogging in the microcalorimetric cell or in the teflon tubes leading to and from the microcalorimetric cell. A pH of 7 was used in all the following experiments as this is the optimum pH for polymyxin - lipid binding.
It was of vital importance to maintain a constant oxygen tension; this was achieved by using saturation concentrations of oxygen. It was decided to use the height of the small peak as full scale deflection for the antibiotic assay as the increase in power was exponential up to this point and the peak occurred at a convenient time. This choice of assay point was empirical. The inoculum was 1.1 ± 0.06 x 10^8 cfu/ml for all the microclalorimetric incubations. […]

Micrococcus flavus [4] = experiment: Flow microcalorimetry (p-t curves) of growing Micrococcus flavus; format: cell-based; details: single antibiotic at its MIC (4 ug/ml Neo; 2ug/ml POLB)
Excerpt: as §1, §2, §3, §4
This point occurred at an increase in deflection of 29.5% from the baseline value.

[5] = 0.25 ug/ml added at 0 % of p-t curve

For NC[C@@H]1O[C@H](O[C@H]2[C@@H](O)[C@H](O[C@@H]3[C@@H](O)[C@H](N)C[C@H](N)[C@H]3O[C@H]3O[C@H](CN)[C@@H](O)[C@H](O)[C@H]3N)O[C@@H]2CO)[C@H](N)[C@@H](O)[C@@H]1O.O=S(=O)(O)O [neomycin sulphate, Neomycin sulphate], the MBC (E. coli; as printed in table head) was 5900 µg/mL, the MIC (E. coli; as printed in table head) was 5900 µg/mL and the MIC (E. coli; text) was 500 µg/mL. For the same compound, the MIC ([1]; as printed in table heads) was 0.25 µg/mL, the MIC (Micrococcus flavus [2]) was 4 µg/mL and the effect on power (respiring E.coli; Fig. 16) was “an increase in power”. The Comments (respiring E.coli; NEO 500 ug/ml) was “Consistent with increased rate of RNA synthesis”, the “Observed effect on p-t curves” value (respiring E.coli; NEO 500 ug/ml, pH 8) was “Increase in heat output” and the heat output (respiring E.coli; all concentrations) was “increased heat output”. The Linear dose-response between (respiring E.coli; table) was 10 to 100 µg/mL, the “linear relationship between dose and the reciprocal of increase in response from the control curve” value (respiring E.coli; text) was 20 to 100 µg/mL and the Comments (Bacillus pumilus; [5]) was “No effect”. The “Observed effect on p-t curves Related to standard growth curve” value (from here on “Observed effect on p-t curves Related”) (Bacillus pumilus; [5]) was 1X standard curve, the Comments (Bacillus pumilus; 0.5 ug/ml added at 0 % of p-t curve) was “Inhibition of RNA synthesis” and the Comments (Bacillus pumilus; 1 ug/ml added at 10 % of p-t curve) was “Growth promoting effect potential stimulation of RNA synthesis”. For the same compound, the “Observed effect on p-t curves Related” value (Bacillus pumilus; 1 ug/ml added at 10 % of p-t curve, at 11 h) was 1.2 X signal at 11 h, the Comments (Bacillus pumilus; 1 ug/ml added at 15 % of p-t curve) was “Growth promoting effect potential stimulation of RNA synthesis” and the “Observed effect on p-t curves Related” value (Bacillus pumilus; 1 ug/ml added at 15 % of p-t curve, at 11 h) was 1.2 X signal at 11 h. For the same compound, the Comments (Bacillus pumilus; 1 ug/ml added at 25 % of p-t curve) was “Growth promoting effect potential stimulation of RNA synthesis”, the “Observed effect on p-t curves Related” value (Bacillus pumilus; 1 ug/ml added at 25 % of p-t curve, at 11 h) was 5X signal at 11 h and the Comments (Bacillus pumilus; 2 ug/ml added at 10 % of p-t curve) was “Growth promoting effect potential stimulation of RNA synthesis”. For the same compound, the “Observed effect on p-t curves Related” value (Bacillus pumilus; 2 ug/ml added at 10 % of p-t curve, at 11 h) was 1.2 Xsignal at 11 h, the power output (Bacillus pumilus; 0.5 and 1 x MIC (1-2 µg/ml) added after an increase of 10% of full scale deflection) was “the same effect was observed” and the power output (Bacillus pumilus; 0.5 x MIC (1µg/ml) added after a 25% increase power output) was “massive power output 2-4h after addition”. The Comments (Bacillus pumilus; > 2 ug/ml added at 10 % of p-t curve) was “Inhibition of RNA synthesis Possible to achieve linear dose-response at 7 hours after addition of antibiotic to the bacterial culture, after 11 hours heat-out put levels off b ut do not return to baseline indicating a bacteriostatic effect and maximum inhibition of RNA synthesis”, the “Observed effect on p-t curves Related” value (Bacillus pumilus; > 2 ug/ml added at 10 % of p-t curve, at 11 h) was 0.75 or less at 11 h and the power output (Bacillus pumilus; added after an increase in power output of 15% of full scale deflection) was “only marginally larger than that observed for the normal growth curve”. For the same compound, the power output (Bacillus pumilus; higher concentrations of antibiotic) was “a decrease in power output was observed”, the “concentrations at which an increased heat output can be observed” value (Bacillus pumilus; organism not given) was less than 1 µg/mL and the “effect at MIC” value (B. pumilus; 5.1 x 10^6 cfu/ml) was “bacteriostatic”. The MIC (B. pumilus; 5.1 x 10^6 cfu/ml, inoculum used in the microcalorimetric incubations) was 2 µg/mL, the MIC (B. pumilus; inoculum of 1x10^5 cfu/ml) was 0.1 µg/mL and the “effect at MIC” value (B. pumilus; inoculum of 1x10^5 cfu/ml) was “bacteriostatic”. For the same compound, the MIC (B. pumilus; listed as NEO) was 1 µg/mL, the “Observed effect on p-t curves” value ([3]; single antibiotic at its MIC (0.25ug/ml Neo; 100ug/ml ZNB), added at 50 % of p-t curve) was “No effect on p-t curve” and the “Observed effect on p-t curves” value (Micrococcus flavus [4]) was “No effect on p-t curve”.

Compound Polymyxin B sulphate has an MBC (E. coli; as printed in table head) of 6.3 µg/mL, an MIC (E. coli; as printed in table head) of 6.3 µg/mL and an MBC (E. coli; text) of 6.3 µg/mL. For the same compound, the MIC (E. coli; text) was 6.3 µg/mL, the MBC ([1]; as printed in table head) was “Ug/ml MIC & MBC 2 ug/ml” and the MIC ([1]; as printed in table heads) was “Ug/ml MIC & MBC 2 ug/ml”. For the same compound, the MIC ([1]; listed as POL) was 2 µg/mL, the MBC ([1]; text) was 2 µg/mL and the MIC ([1]; text) was 2 µg/mL. The MIC (Micrococcus flavus [2]) was 2 µg/mL, the “sensitivity of the assay” value (respiring E.coli) was 3 µg/mL and the “effect on p-t curve” value (respiring E.coli; Fig. 15) was “reduced the initial peak height and thereafter the p-t curve returned to baseline”. The Comments (respiring E.coli; POLB 6.3 ug/ml) was “Bacteriocidal action demonstrated”, the “time to return to baseline (after reduced height of p-t curve initially)” value (respiring E.coli; POLB 6.3 ug/ml, pH 7) was “Reduced height of p-t curve initially and returned to baseline within 1 hour” and the “time until growth was inhibited completely” value (Bacillus pumilus; 20ug/ml POLB, pH 8.00) was “Within 9 hours growth was inhibited completely”. For the same compound, the MIC (B. pumilus; as printed in table heads) was 20 µg/mL, the “concentration above which the declines were identical” value [3] was greater than 3.5 x MIC and the “time to observable response after addition” value [3] was no more than 5 min. The “Observed effect on p-t curves” value ([3]; 0.07 ug/ml added at 18 % of p-t curve) was “No effect on growth curve”, the “response of p-t curve” value ([3]; 0.033 x MIC (0.07 µg/ml)) was “no response to the antibiotic was observed” and the Comments ([3]; 0.35 -2 ug/ml added at 18 % of p-t curve) was “All curves return to baseline confirmed bacteriocidal action”. The “Observed effect on p-t curves” value ([3]; 0.35 -2 ug/ml added at 18 % of p-t curve, CV 2.5%) was “Linear log dose response 10 min after addition of antibiotic CV 2.5%”, the “time to sharp decline in heat output after addition” value ([3]; 0.5 x MIC) was no more than 10 min and the mode of action ([3]; at MIC values) was “bactericidal”. The “Observed effect on p-t curves” value (Micrococcus flavus [4]) was “Slightly delayed peak”.
